Experimental data: US6274715A, “Tricyclic erythromycin derivatives” (priority 1997, dated 2001)
In brackets after ≈: the same amount, converted by molar mass.

How the values were obtained:
Type in all cases: cell-based
[1] = system: STAPHYLOCOCCUS AUREUS ATCC 6538P; assay: In vitro antibacterial activity, MIC, BHI agar dilution; conditions: S. aureus ATCC 6538P, 35-37° C., 20 to 24 hours, unit assumed
[2] = system: STAPHYLOCOCCUS AUREUS A5177; assay: as above
[3] = system: STAPHYLOCOCCUS AUREUS A-5278; assay: as above; conditions: S. aureus A-5278, unit assumed
[4] = system: STAPHYLOCOCCUS AUREUS CMX 642A; assay: as above; conditions: S. aureus CMX 642A, unit assumed
[5] = system: STAPHYLOCOCCUS AUREUS NCTC10649M; assay: as above; conditions: S. aureus NCTC10649M, unit assumed
[6] = system: STAPHYLOCOCCUS AUREUS CMX 553; assay: as above; conditions: S. aureus CMX 553, unit assumed
[7] = system: STAPHYLOCOCCUS AUREUS 1775; assay: as above; conditions: S. aureus 1775, unit assumed
[8] = system: STAPHYLOCOCCUS EPIDERMIDIS 3519; conditions: S. epidermidis 3519; BHI agar; unit assumed
[9] = system: EN[…] ATCC 8043; assay: In vitro antibacterial activity, MIC, BHI agar dilution; conditions: E. faecium ATCC 8043, unit assumed
How it was run: (§1)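 MIC was read visually as the lowest drug concentration showing no growth, a slight haze or sparsely isolated colonies relative to a compound-free BHI plate. Plates held serial aqueous dilutions in BHI agar, were spot-inoculated with 1:100 (or 1:10) culture dilutions and incubated 20 to 24 hours at 35-37° C.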

[10] = system: M[…] ATCC 4698; assay: as above; conditions: M. luteus ATCC 4698, unit assumed
How it was run: as §1

[11] = system: M[…] ATCC 9341; assay: as above; conditions: M. luteus ATCC 9341, unit assumed
How it was run: as §1

[12] = system: STR[…] 508; assay: as above; conditions: S. agalactiae CMX 508, unit assumed
How it was run: as §1

[13] = system: STREPTOCOCCUS BOVIS A-5169; assay: as above; conditions: S. bovis A-5169, unit assumed
[14] = system: STREPTOCOCCUS PYOGENES EES61; assay: as above; conditions: S. pyogenes EES61, unit assumed
[15] = system: STREPTOCOCCUS PYOGENES 930; assay: as above; conditions: S. pyogenes 930, unit assumed
[16] = system: STREPTOCOCCUS PYOGENES PIU 2548; assay: as above; conditions: S. pyogenes PIU 2548, unit assumed
[17] = system: ESCHERICHIA COLI DC-2; assay: as above; conditions: E. coli DC-2, unit assumed
[18] = system: ESCHERICHIA COLI H560; assay: as above; conditions: E. coli H560, unit assumed
[19] = system: ESCHERICHIA COLI KNK 437; conditions: E. coli KNK 437; BHI agar; unit assumed
[20] = system: ENTEROBACTER AEROGENES ATCC 13048; assay: In vitro antibacterial activity, MIC, BHI agar dilution; conditions: E. aerogenes ATCC 13048, unit assumed
[21] = system: KLEBSIELLA PNEUMONIAE ATCC 8045; assay: as above; conditions: K. pneumoniae ATCC 8045, unit assumed
[22] = system: PROVIDENCIA STUARTII CMX 640; conditions: P. stuartii CMX 640; BHI agar; unit assumed
[23] = system: PSEUDOMONAS AERUGINOSA BMH10; assay: In vitro antibacterial activity, MIC, BHI agar dilution; conditions: P. aeruginosa BMH10, unit assumed
[24] = system: PSEUDOMONAS AERUGINOSA 5007; assay: as above; conditions: P. aeruginosa 5007, unit assumed
[25] = system: PSEUDOMONAS AERUGINOSA K799/WT; assay: as above; conditions: P. aeruginosa K799/WT, unit assumed
[26] = system: PSEUDOMONAS AERUGINOSA K799/61; assay: as above; conditions: P. aeruginosa K799/61, unit assumed
[27] = system: PSEUDOMONAS CEPACIA 296I; assay: as above; conditions: P. cepacia 296I, unit assumed
[28] = system: ACINETOBACTER CALCOACETICUS CMX 669; assay: as above; conditions: A. calcoaceticus CMX 669, unit assumed
[29] = system: PSEUDOMONAS AERUGINOSA DPHD-5263; assay: as above; conditions: P. aeruginosa DPHD-5263, unit assumed
[30] = system: PSEUDOMONAS AERUGINOSA DPHD-2862; assay: as above; conditions: P. aeruginosa DPHD-2862, unit assumed
[31] = system: CANDIDA ALBICANS CCH 442; assay: as above; conditions: C. albicans CCH 442, unit assumed
[32] = system: MYCOBACTERIUM SMEGMATIS ATCC 114; assay: as above; conditions: M. smegmatis ATCC 114, unit assumed
[33] = system: ESCHERICHIA COLI SS; assay: as above; conditions: E. coli SS, unit assumed

## CC[C@H]1OC(=O)[C@H](C)C[C@H](C)[C@@H](O[C@@H]2O[C@H](C)C[C@H](N(C)C)[C@H]2O)[C@](C)(OC)C[C@@H](C)C2=NCCN3C(=O)O[C@@]1(C)[C@H]3[C@H]2C [Example 1]
[1]
  MIC: 6.2 µg/mL (≈ 9.94 µM)
[2]; S. aureus A5177
  MIC: 6.2 µg/mL (≈ 9.94 µM)
[3]
  MIC: > 100 µg/mL
[4]
  MIC: 6.2 µg/mL (≈ 9.94 µM)
[5]
  MIC: 6.2 µg/mL (≈ 9.94 µM)
[6]
  MIC: 6.2 µg/mL (≈ 9.94 µM)
[7]
  MIC: > 100 µg/mL
[8]
  MIC: 12.5 µg/mL (≈ 20 µM)
[9]
  MIC: 0.78 µg/mL (≈ 1.25 µM)
[10]
  MIC: 0.39 µg/mL (≈ 0.625 µM)
[11]
  MIC: 0.39 µg/mL (≈ 0.625 µM)
[12]
  MIC: 0.39 µg/mL (≈ 0.625 µM)
[13]
  MIC: 0.39 µg/mL (≈ 0.625 µM)
[14]
  MIC: 0.39 µg/mL (≈ 0.625 µM)
[15]
  MIC: > 100 µg/mL
[16]
  MIC: 0.78 µg/mL (≈ 1.25 µM)
[17]
  MIC: 0.78 µg/mL (≈ 1.25 µM)
[18]
  MIC: 50 µg/mL (≈ 80.1 µM)
[19]
  MIC: 25 µg/mL (≈ 40.1 µM)
[20]
  MIC: > 100 µg/mL
[21]
  MIC: > 100 µg/mL
[22]
  MIC: 100 µg/mL (≈ 160 µM)
[23]
  MIC: > 100 µg/mL
[24]
  MIC: > 100 µg/mL
[25]
  MIC: > 100 µg/mL
[26]
  MIC: > 100 µg/mL
[27]
  MIC: 12.5 µg/mL (≈ 20 µM)
[28]
  MIC: > 100 µg/mL
[29]
  MIC: 50 µg/mL (≈ 80.1 µM)
[30]
  MIC: > 100 µg/mL
[31]
  MIC: > 100 µg/mL
[32]
  MIC: 3.1 µg/mL (≈ 4.97 µM)

## CC[C@H]1OC(=O)[C@H](C)C(=O)[C@H](C)[C@@H](O[C@@H]2O[C@H](C)C[C@H](N(C)C)[C@H]2O)[C@](C)(OC)C[C@@H](C)C2=NC[C@@H](C)N3C(=O)O[C@@]1(C)[C@H]3[C@H]2C [Example 9]
[1]
  MIC: 0.39 µg/mL (≈ 0.598 µM)
[2]; S. aureus A5177, unit assumed
  MIC: 0.39 µg/mL (≈ 0.598 µM)
[3]
  MIC: > 100 µg/mL
[4]
  MIC: 0.39 µg/mL (≈ 0.598 µM)
[5]
  MIC: 0.2 µg/mL (≈ 0.307 µM)
[6]
  MIC: 0.39 µg/mL (≈ 0.598 µM)
[7]
  MIC: > 100 µg/mL
[8]
  MIC: 0.39 µg/mL (≈ 0.598 µM)
[9]
  MIC: 0.05 µg/mL (≈ 0.0767 µM)
[10]
  MIC: 0.39 µg/mL (≈ 0.598 µM)
[11]
  MIC: 0.1 µg/mL (≈ 0.153 µM)
[12]
  MIC: 0.01 µg/mL (≈ 0.0153 µM)
[14]
  MIC: 0.01 µg/mL (≈ 0.0153 µM)
[15]
  MIC: > 100 µg/mL
[16]
  MIC: 0.39 µg/mL (≈ 0.598 µM)
[17]
  MIC: 25 µg/mL (≈ 38.4 µM)
[18]
  MIC: 25 µg/mL (≈ 38.4 µM)
[19]
  MIC: 100 µg/mL (≈ 153 µM)
[20]
  MIC: 25 µg/mL (≈ 38.4 µM)
[21]
  MIC: 25 µg/mL (≈ 38.4 µM)
[22]
  MIC: > 100 µg/mL
[23]
  MIC: 100 µg/mL (≈ 153 µM)
[24]
  MIC: > 100 µg/mL
[25]
  MIC: 100 µg/mL (≈ 153 µM)
[26]
  MIC: 6.2 µg/mL (≈ 9.51 µM)
[27]
  MIC: > 100 µg/mL
[28]
  MIC: 12.5 µg/mL (≈ 19.2 µM)
[29]
  MIC: > 100 µg/mL
[30]
  MIC: > 100 µg/mL
[31]
  MIC: > 100 µg/mL
[32]
  MIC: 3.1 µg/mL (≈ 4.76 µM)

## CC[C@H]1OC(=O)[C@H](C)C(=O)[C@H](C)[C@@H](O[C@@H]2O[C@H](C)C[C@H](N(C)C)[C@H]2O)[C@](C)(OC)C[C@@H](C)C2=NC[C@H](CO)N3C(=O)O[C@@]1(C)[C@H]3[C@H]2C [Example 63]
[1]
  MIC: 0.78 µg/mL (≈ 1.17 µM)
[2]; S. aureus A5177, unit assumed
  MIC: 0.78 µg/mL (≈ 1.17 µM)
[3]
  MIC: > 100 µg/mL
[4]
  MIC: 1.56 µg/mL (≈ 2.34 µM)
[5]
  MIC: 0.78 µg/mL (≈ 1.17 µM)
[6]
  MIC: 1.56 µg/mL (≈ 2.34 µM)
[7]
  MIC: > 100 µg/mL
[8]
  MIC: 0.78 µg/mL (≈ 1.17 µM)
[9]
  MIC: 0.2 µg/mL (≈ 0.299 µM)
[10]
  MIC: 0.78 µg/mL (≈ 1.17 µM)
[11]
  MIC: 0.2 µg/mL (≈ 0.299 µM)
[12]
  MIC: 0.2 µg/mL (≈ 0.299 µM)
[13]
  MIC: 0.05 µg/mL (≈ 0.0749 µM)
[14]
  MIC: 0.1 µg/mL (≈ 0.15 µM)
[15]
  MIC: > 100 µg/mL
[33]
  MIC: 0.78 µg/mL (≈ 1.17 µM)
[17]
  MIC: > 100 µg/mL
[18]
  MIC: 50 µg/mL (≈ 74.9 µM)
[19]
  MIC: > 100 µg/mL
[20]
  MIC: > 100 µg/mL
[21]
  MIC: > 100 µg/mL
[22]
  MIC: > 100 µg/mL
[23]
  MIC: > 100 µg/mL
[24]
  MIC: > 100 µg/mL
[25]
  MIC: > 100 µg/mL
[27]
  MIC: > 100 µg/mL
[28]
  MIC: 100 µg/mL (≈ 150 µM)
[29]
  MIC: > 100 µg/mL
[30]
  MIC: > 100 µg/mL
[31]
  MIC: > 100 µg/mL
[32]
  MIC: 6.2 µg/mL (≈ 9.28 µM)
